Results: US20160046570A1, “N-ACYLOXYSULFONAMIDE AND N-HYDROXY-N-ACYLSULFONAMIDE DERIVATIVES” (The Johns Hopkins University, priority 2009, published 2016)

Key:
[1] = HNO production via N2O quantification (GC headspace), PBS buffer pH 7.4; assay type: physicochemical; settings: pH 7.4, 37° C. under argon, relative to Angeli's salt
Method: (§1) Nitrous oxide is produced via the dimerization and dehydration of HNO, and is the most common marker for HNO production (Fukuto, J. M. et al., Chem. Res. Toxicol. 2005, 18, 790-801).
(§2) The ability of compounds to donate HNO is assessed. N2O results are reported relative to Angeli's salt. All decompositions are carried out at 37° C. under argon.

esterase = assay: HNO production via N2O quantification (GC headspace), PBS buffer pH 7.4 with added esterase; assay type: in vitro ADME; settings: pH 7.4 with 2-4 mg added esterase, 37° C. under argon, relative to Angeli's salt, N2O measured at 1 hr
Method: as §1, §2

| SMILES | % N2O pH 7.4 ([1]; no measurement time printed) [%] | % N2O pH 7.4 ([1]; N2O measured at 5 hr) | % N2O esterase (esterase) |
| --- | --- | --- | --- |
| CC(C)(C)C(=O)N(O)S(=O)(=O)c1c(Cl)cccc1Cl [Compound 16, N-hydroxy-N-trimethylacetyl-2,6-dichlorobenzenesulfonamide] | 41 |  |  |
| O=C(c1ccccc1)N(O)S(=O)(=O)c1ccccc1 [Compound 15, N-hydroxy-N-benzoyl- benzenesulfonamide] | 19 |  |  |
| CC(=O)ONS(=O)(=O)c1ccccc1Br [Compound 2, N-(acetyloxy)-2-bromobenzenesulfonamide] |  | <3 (5 hr) % | 53 (1 hr) % |
| CC(=O)ONS(=O)(=O)c1c(Cl)cccc1Cl [Compound 3, N-acetyloxy-2,6-dichlorobenzenesulfonamide] |  | <3 (5 hr) % | 56 (1 hr) % |
